The NIST ThermoML archive (doi:10.1021/acs.jced.5b00544)
Numbers after ± are expanded uncertainties.

Assay: mean ionic activity coefficient (dimensionless); mn = molality of the nth substance listed, in mol/kg
Conditions: 101 kPa, Liquid

[Cl-].[K+] [potassium chloride] + O
mean ionic activity coefficient
Conditions	273.15 K	283.15 K	293.15 K	303.15 K	313.15 K	323.15 K	333.15 K	343.15 K
m1 = 0.1	0.772 ± 0.05	0.771 ± 0.05	0.77 ± 0.05	0.767 ± 0.05	0.764 ± 0.05	0.761 ± 0.05	0.757 ± 0.05	0.752 ± 0.05
m1 = 0.2	0.719 ± 0.05	0.719 ± 0.05	0.719 ± 0.05	0.716 ± 0.05	0.714 ± 0.05	0.71 ± 0.05	0.705 ± 0.05	0.699 ± 0.05
m1 = 0.5	0.643 ± 0.05	0.647 ± 0.05	0.651 ± 0.05	0.649 ± 0.05	0.647 ± 0.05	0.644 ± 0.05	0.638 ± 0.05	0.632 ± 0.05
m1 = 1	0.581 ± 0.05	0.592 ± 0.05	0.602 ± 0.05	0.602 ± 0.05	0.603 ± 0.05	0.601 ± 0.05	0.596 ± 0.05	0.588 ± 0.05

[Cl-].[Na+] [sodium chloride] + O
mean ionic activity coefficient
Conditions	273.15 K	283.15 K	293.15 K	303.15 K	313.15 K	323.15 K	333.15 K	343.15 K	353.15 K
m1 = 0.1	0.781 ± 0.05	0.78 ± 0.05	0.779 ± 0.05	0.777 ± 0.05	0.774 ± 0.05	0.77 ± 0.05	0.766 ± 0.05	0.761 ± 0.05	0.752 ± 0.05
m1 = 0.2	0.734 ± 0.05	0.735 ± 0.05	0.735 ± 0.05	0.732 ± 0.05	0.729 ± 0.05	0.725 ± 0.05	0.72 ± 0.05	0.713 ± 0.05	0.703 ± 0.05
m1 = 0.25	0.719 ± 0.05	0.72 ± 0.05	0.721 ± 0.05	0.718 ± 0.05	0.715 ± 0.05	0.711 ± 0.05	0.706 ± 0.05	0.699 ± 0.05	0.688 ± 0.05
m1 = 0.5	0.672 ± 0.05	0.677 ± 0.05	0.681 ± 0.05	0.68 ± 0.05	0.678 ± 0.05	0.674 ± 0.05	0.667 ± 0.05	0.659 ± 0.05	0.647 ± 0.05
m1 = 0.7	0.651 ± 0.05	0.658 ± 0.05	0.665 ± 0.05	0.666 ± 0.05	0.664 ± 0.05	0.66 ± 0.05	0.653 ± 0.05	0.644 ± 0.05	0.633 ± 0.05
m1 = 0.75	0.646 ± 0.05	0.655 ± 0.05	0.662 ± 0.05	0.663 ± 0.05	0.662 ± 0.05	0.658 ± 0.05	0.651 ± 0.05	0.641 ± 0.05	0.631 ± 0.05
m1 = 1	0.629 ± 0.05	0.641 ± 0.05	0.653 ± 0.05	0.655 ± 0.05	0.655 ± 0.05	0.652 ± 0.05	0.644 ± 0.05	0.633 ± 0.05	0.624 ± 0.05
